In series [1] the test system is Ebola virus (EBOV/May-eGFP). Nature of the series: microbe, parasite or virus in culture. In kind it is cell-based. To be noted: Zaire ebolavirus, read-out: IC50, EBOV infection inhibition.
Series [2] has as its system SARS CoV-2 (USA_WA1/2020). In kind it is cell-based.
Another series has as its system cell viability. Nature of the series: ATP content assay for cell viability and compound cytotoxicity.

pIC50: −log10 of the molar value. A value given as a limit tells only on which side of the number the result lay.

As to `CC(C(O)c1ccccc1)N(C)CCOC(c1ccccc1)c1ccccc1` (stereo not drawn) [difeterol], in series [1], the negative-log IC50 (pIC50) (as a rule, −log10 of the IC50, conventionally taken in molar units) was at least 5.30.

Consider `Cc1cccc(C=NNc2cc(N3CCOCC3)nc(N3CCOCC3)n2)c1` [MLS000699212-03, Benzaldehyde, 3-methyl-, 2-(2,6-di-4-morpholinyl-4-pyrimidinyl) hydrazone], for which the “selectivity index (SI)” value in series [2] is reported as 28. For the same compound, the pIC50 in series [2] (read-out: IC50, SARS-CoV-2 CPE assay) was 6.30; in the series with cell viability (read-out: cytotoxicity IC50 (cell viability), counter assay to CPE), 4.85. In addition, the “inhibition of cell viability (slight cytotoxicity)” value in the series with cell viability (maximal effect) amounted to 55%.

Regarding `CCOC(=O)c1c(CSc2ccccc2)n(C)c2cc(Br)c(O)c(CN(C)C)c12` [umifenovir], the pIC50 in series [1] is at least 5.30.

The values above are taken from publication PMC9843700 (Nature biotechnology, 2021).
